For assay [1], the system named is Respiratory syncytial virus recombinant with luciferase (RSV-Luc5) in HEp-2 cells. The assay is described as follows: HEp-2 RSV-Luc5 384-well assay (EC50 RSVFLUC Hep2-384 v2, Example V). Type of assay: cell-based. As to conditions: human respiratory syncytial virus, HEp-2, 72 h, read-out: RSV Hep-2 FLuc EC50 (v2) (nM) (per Ex. V). An outline of the steps: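 HEp-2 cells (4,000/well) infected with RSV-Luc5 at MOI 0.5 in DMEM/10% FBS with compound, 10-point 1:3 dilutions, 3 days at 37 °C. Replication read by One-Glo luminescence, normalized to remdesivir (0%) and DMSO (100%). EC50 from non-linear regression as concentration giving 50% reduction.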

Assay [2] deals with Human Rhinovirus 16 (HRV16) in H1-HeLa cells. Put plainly: H1-HeLa HRV-CTG EC50, HRV16 (Example Z). It counts as cell-based. As to conditions: Rhinovirus A, HRV16, 96 h, MOI 0.25, 4 days, Celltiter-Glo, read-out: HRV 16 HELA EC50 (nM) (per Ex. Z). An outline of the steps:
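H1-HeLa cells (5,000/well) in DMEM with 2% FBS were infected with HRV1B, HRV14 or HRV16 at MOI 0.5, 1.0 and 0.25, respectively, with 10-point 1:3 compound dilutions. After 4 days at 37 °C, viability was read by CellTiter-Glo luminescence. EC50 was the concentration reducing viral replication by 50%, normalized to rupintrivir and DMSO controls.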

Experimental findings from patent US20250034182A1, “PHOSPHOLIPID COMPOUNDS AND METHODS OF MAKING AND USING THE SAME” (priority 2021, published 2025) are described below.

For `CCCCCCCCCCCCCCOC[C@H](COP(=O)(O)OC[C@@]1(C#N)O[C@@H](c2ccc3c(N)ncnn23)[C@H](O)[C@@H]1O)OCc1ccc(C#N)cc1F` [Compound 75, ((2R,3S,4R,5S)-5-(4-aminopyrrolo[2,1-f][1,2,4]triazin-7-yl)-2-cyano-3,4-dihydroxytetrahydrofuran-2-yl)methyl ((R)-2-((4-cyano-2-fluorobenzyl)oxy)-3-(tetradecyloxy)propyl) hydrogen phosphate], the EC50 in assay [1] amounted to 446 nM; in assay [2], 37 nM.

Take `CCCCCCCCCCCCCCCC[C@H](COP(=O)(O)OC[C@@]1(C#N)O[C@@H](c2ccc3c(N)ncnn23)[C@H](O)[C@@H]1O)OCc1cc(F)cc(C#N)c1` [Compound 78, ((2R,3S,4R,5S)-5-(4-aminopyrrolo[2,1-f][1,2,4]triazin-7-yl)-2-cyano-3,4-dihydroxytetrahydrofuran-2-yl)methyl ((R)-2-((3-cyano-5-fluorobenzyl)oxy)octadecyl) hydrogen phosphate]: the EC50 in assay [1] is 439 nM; in assay [2] it was 66 nM.

For `CCCCCCCCCCCCCCCC[C@@H](COP(=O)(O)OC[C@@]1(C#N)O[C@@H](c2ccc3c(N)ncnn23)[C@H](O)[C@@H]1O)OCc1cc(F)cc(C#N)c1` [Compound 79, ((2R,3S,4R,5S)-5-(4-aminopyrrolo[2,1-f][1,2,4]triazin-7-yl)-2-cyano-3,4-dihydroxytetrahydrofuran-2-yl)methyl ((S)-2-((3-cyano-5-fluorobenzyl)oxy)octadecyl) hydrogen phosphate], the figures for the concentration for a half-maximal effect (EC50) in assay [1] and in assay [2] were 1090 nM and 70 nM, respectively.

Regarding `CCCCCCCCCCCCCCC[C@H](COP(=O)(O)OC[C@@]1(C#N)O[C@@H](c2ccc3c(N)ncnn23)[C@H](O)[C@@H]1O)OCc1cc(F)cc(C#N)c1` [Compound 80, ((2R,3S,4R,5S)-5-(4-aminopyrrolo[2,1-f][1,2,4]triazin-7-yl)-2-cyano-3,4-dihydroxytetrahydrofuran-2-yl)methyl ((R)-2-((3-cyano-5-fluorobenzyl)oxy)heptadecyl) hydrogen phosphate], the concentration giving a half-maximal response (EC50) in assay [1] was 1050 nM; in assay [2], 111 nM.
